# From patent US12077607B2, “Functional and therapeutic effects of PAR4 cleavage by cathepsin G” (UNIVERSITY OF UTAH RESEARCH FOUNDATION, priority 2021, dated 2024)
# Key:
# [1] = test system: washed platelets; test: Platelet aggregation of human washed platelets; assay type: cell-based; settings: for platelet aggregation, species comparison: humans: 1 U/mL human thrombin, 1 μM human CatG or 1 mM RA-11mer
# Protocol: (§1) Platelet isolation, aggregation, and activation. Human washed platelets were prepared and resuspended in Tyrode's Buffer at 2×10^8/mL as described (Edelstein et al., Nat Med. 2013; 19(12):1609-1616). For human and dog platelet comparisons, platelets were prepared using a modified human platelet protocol with final concentrations of […] (Cayman Chemical, Ann Arbor, MI, USA) used during centrifugation steps. Centrifugations after Tyrode's washes was decreased to 1,250×g as described in Cremer et al., PLOS One. 2019; 14(11): e0224891. Platelet aggregation was measured under stirring conditions at 37° C. using a PAP-8E aggregometer after treatment with the following agonists: arachidonic acid (Bio/Data Corporation, Horsham, PA, USA), cathepsin G, elastase, proteinase 3 (Athens Research Group), α-thrombin (Sigma, St. Louis, MO, USA), PAR-1 peptide (SFLLRN) (GL Biochem, China). P-selectin and PAC-1 were measured as previously described (Yee et al., J Thromb Haemost. 2006; 4(9):2043-2050; Tourdot et al., Arterioscler Thromb Vasc Biol. 2014; 34(12):2644-2650).
# GYPGQV-NH2 (SEQ ID NO: 5), RALLLGWVPTR-NH2 (SEQ ID NO: 1), ALLLGWVPTR-NH2 (SEQ ID NO: 2), RALLLG-NH2 (SEQ ID NO: 4). Peptides were synthesized by BIOMATIK (Wilmington, DE, USA) at similar purities. All peptides were suspended in 50% DMSO and 50% ethanol. To measure platelet activation, washed platelets were stimulated with various concentrations of the peptide in the presence of CD41-APC, P-selectin (PE) and PAC-1 (FITC) for 15 minutes at 37° C. and then fixed with FACS Lysis Buffer. Samples were immediately run on a Cytoflex flow cytometer. In some experiments, platelets were stimulated with peptides and platelet aggregation performed as described above. Platelet calcium flux was induced by RALLLGWVPTR (2 mM; SEQ ID NO: 1), CatG (500 nM), ALLLGWVPTR (2 mM; SEQ ID NO: 2) or tyrodes buffer and monitored as described above.
# [2] = test system: mouse washed platelets; test: Platelet aggregation of mouse washed platelets; assay type: cell-based; settings: 1 U/mL human thrombin, 1 μM human CatG or 1 mM RA-11mer
# Description: Animal studies. Mouse platelets were isolated as previously described from C57BL/6 mice (Denorme et al., Blood. 2020; 135(6):429-440). Dog platelets were isolated from whole blood drawn into ACD using a similar isolation procedure as for human platelets. All animal studies were approved by the University of Utah Institutional Animal Care and Use Committee (18-10012).
# Platelet and neutrophil isolation. Platelets and neutrophils were isolated as previously described (Yost et al., J Clin Invest. 2016; 126(10):3783-3798). Platelet isolation from dogs, rats and mice was approved by the IACUC. Platelet activation and aggregation were performed as previously described (Manne et al., Blood. 2020; 136(11): 1317-1329).
# as §1
# [3] = target: T1, PAR4-C (SEQ ID NO: 8) (Homo sapiens, UniProt Q96RI0); test: PAR4 peptide cleavage analysis by LC-MS/MS, PAR4-C; assay type: biochemical; settings: CatG 400 nM, 37° C., 15 minutes; thrombin
# T1 construct: purchased BIOMATIK (Wilmington, DE, USA); host or cells: chemical synthesis
# T1 sequence (Q96RI0 57-78 limits assumed): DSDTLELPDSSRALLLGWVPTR
# Protocol: PAR-4 Peptide and Cleavage Analysis. PAR4 synthetic peptides were incubated with protease, snapped frozen, and sent for mass spectrometry analysis. PAR-4B ([…]; SEQ ID NO: 7) and PAR-4C ([…]; SEQ ID NO: 8) were synthesized by BIOMATIK (Wilmington, DE, USA). PAR4-B and PAR4-C were incubated with vehicle, thrombin (100 nM) or cathepsin G (400 nM) at 37° C. for 15 minutes to an hour depending on the experimental condition. After digestion with the indicated protease, reactions were snapped frozen and sent to the University of Arizona, Analytical and Biological Mass Spectrometry Core Facility (Tucson, Arizona) for analysis. LC-MS/MS analysis was done on a Q Exactive Plus mass spectrometer (Thermo Fisher Scientific, San Jose, CA) equipped with an EASY-Spray nanoESI source. […] The peptide identification results were further analyzed with Scaffold Q+S v 4.8.7 (Proteome Software Inc., Portland OR), a program that relies on various search engine results (i.e.: Sequest, X!Tandem, MASCOT) and which uses Bayesian statistics to reliably identify more spectra9.
Substance,"platelet aggregation, species comparison: humans [1]","potency as activator of PAR4, comparison ([1]; from platelet aggregation data)","platelet aggregation induced by neutrophil serine protease ([1]; washed platelets, 400 nM protease)","platelet aggregation, species comparison: mice [2]",cleavage of PAR4-C peptide [3]
CatG: serine protease cathepsin G released by activated neutrophils,induced platelet aggregation,much less potent than the thrombin enzyme,only protease to induce platelet aggregation,only induced platelet aggregation in humans and dogs,cleavage between Ser67 (S67)-Arg68 (R68)
thrombin,induced platelet aggregation,–,–,induced platelet aggregation,failed to cleave
